Measurements as given in patent publication US20170183306A1, “CYCLIC COMPOUNDS HAVING A 1,3 DIAMINO-FUNCTIONALITY FOR USE IN THE TREATMENT OF HIV INFECTION” (Universite Paris Descartes, priority 2014, published 2017).

Columns and labels:
Format in all cases: cell-based
[1] = tested on: J-Lat cells; assay: J-Lat cells, percentage of GFP-positive cells by cytometry; settings: 24 h, compound alone
Experimental: The J-Lat were grown in RPMI 1640 medium (Gibco-BRL) supplemented with 10% fetal bovine serum, 50 U/ml of penicillin, […] of streptomycin at 37 uC in a humidified 95% air/5% CO2 atmosphere. The cells were plated at 5.105 cells in a 96 well-plate. TNF ? was purchased from Immunosource. SAHA (suberoylanilide hydroxamic acid), prostratin (12-deoxyphorbol-13-acetate) and vorinostat were obtained from Sigma-Aldrich. The J-Lat cells were treated for 24 h with the different compounds alone. The cells were washed twice in PBS, re-suspended in PBS containing 4% paraformaldehyde and fixed for 30 min. Cells were next washed and re-suspended in PBS. The percentage of GFP-positive cells was measured with a LSRFortessa cytometer (Becton-Dickinson) using FACSDiva Version 6.1.3 according to the manufacturer's instructions.
The results for the J-Lat cells experiments are expressed as a percentage of the living fluorescent cells. In this model, some slight increase of viral production measured by fluorescence are quantified (table 1).

[2] = tested on: wild type NL4-3 virus (HIV-1) in HeLa-p4 cells; assay: HeLa-p4 single-cycle HIV-1 infectivity, beta-galactosidase CPRG test; settings: Human immunodeficiency virus 1, NL43, HeLaP4, 48 hours after infection, control = NL4-3 virus alone; for activity at 50 µM: read-out: Hela-p4 CPRG 50 μM; for activity at 100 µM: read-out: Hela-p4 CPRG 100 μM
Experimental: (§1) HeLa-p4 cells are HeLa CD4 LTR-LacZ wherein LacZ expression is induced by the trans-activating protein Tat of HIV, making possible the precise quantification of HIV-1 infectivity from a single replication cycle. HeLa-CD4 cells growing exponentially at a density of 1×10^4/mL were placed in 96-well plates and infected the following day with 1 ng of HIV p24 antigen in the presence of different concentrations of compounds. The titles for a single cycle of the viruses were determined 48 hours after infection by quantifying the beta-galactosidase activity in lysates P4 by colorimetric test (CPRG, Promega) based on the cleavage of chlorophenol red-beta-D-galactopyranoside (CPRG) by beta-galactosidase. A cell viability assay measuring the absorbance at […] using the yellow tetrazolium reagent MTS [[…]] (Promega) was carried out.
(§2) For the helap4 cells experiments, the efficacy of the compounds is determined in comparison with control cells containing wild type NL4-3 virus alone (i.e. without any added compound) and is expressed as percentage of control. Then, the viral replication was increased for several compounds at the 50 and 100 μM concentrations with an absence of cytotoxic effects at the same concentrations (MTS test) (table 1).

[3] = tested on: HeLa-p4 cells; assay: Cell viability assay (MTS) on HeLa-p4 cells; settings: cell viability
Experimental: as §1, §2

| Compound | J-lat 50 μM [1] | activity at 50 µM [2] | activity at 100 µM [2] | activity at 200 µM [2] | Hela-p4 MTS 50 μM [3] | Hela-p4 MTS 100 μM [3] | Hela-p4 MTS 200 μM [3] | J-lat 100 μM [1] |
| --- | --- | --- | --- | --- | --- | --- | --- | --- |
| COc1cccc(CCN2C[C@H](NS(C)(=O)=O)C[C@H](NS(C)(=O)=O)C2)c1 [ECO02-073-B2, N,N′-(1-(3-methoxyphenethyl)piperidine-3,5-diyl)dimethanesulfonamide] | 0.6 percentage of the living fluorescent cells | 103% | 127% | 253% | 96 | 94 | 69 | – |
| CC(C)(C)OC(=O)N[C@@H]1C[C@H](NC(=O)OC(C)(C)C)CN(S(=O)(=O)c2ccccc2)C1 [ECO02-081-C, di-tert-butyl (1-(phenylsulfonyl)piperidine-3,5-diyl)dicarbamate] | 0.8 percentage of the living fluorescent cells | 196% | 207% | 279% | 91 | 69 | 77 | – |
| COc1ccc2c(CN3C[C@H](NC(=O)OC(C)(C)C)C[C@H](NC(=O)OC(C)(C)C)C3)cn(C)c2c1 [ECO02-060-C, di-tert-butyl (1-((6-methoxy-1-methyl-1H-indol-3-yl)methyl)piperidine-3,5-diyl)dicarbamate] | 0.6 percentage of the living fluorescent cells | 178% | 221% | 217% | 69 | 54 | 43 | – |
| COC(=O)[C@H](Cc1ccccc1)N1C[C@H](N)C[C@H](N)C1 [AB-81, (S)-methyl 2-((3S,5R)-3,5-diaminopiperidin-1-yl)-3-phenylpropanoate] | 0.1 percentage of the living fluorescent cells | 151% | 147% | – | 96 | 94 | – | 0.8 percentage of the living fluorescent cells |
| COc1cccc(N2C[C@H](N)C[C@H](N)C2)c1 [ECO01-055-C, 1-(3-methoxyphenyl)piperidine-3,5-diamine] | 0.4 percentage of the living fluorescent cells | 111% | 153% | – | 94 | 94 | – | 0.1 percentage of the living fluorescent cells |
| COC(=O)N[C@@H]1C[C@H](NC(=O)OC)CN(CCc2cccc(OC)c2)C1 [ECO02-074-C, dimethyl (1-(3-methoxyphenethyl)piperidine-3,5-diyl)dicarbamate] | 0.4 percentage of the living fluorescent cells | 139% | 186% | 326% | 101 | 91 | 70 | – |
| COc1ccc(CN2C[C@H](N)C[C@H](N)C2)cc1OC [PDA25, 1-(3,4-dimethoxybenzyl)piperidine-3,5-diamine] | 0 percentage of the living fluorescent cells | 183% | 184% | 227% | 97 | 93 | 58 | 0.2 percentage of the living fluorescent cells |
| N[C@@H]1C[C@H](N)CN(CCCc2ccccc2)C1 [ECO01-035-C, 1-(3-phenylpropyl)piperidine-3,5-diamine] | 1.5 percentage of the living fluorescent cells | 169% | 147% | – | 105 | 88 | – | 2.8 percentage of the living fluorescent cells |
| N[C@@H]1C[C@H](N)CN(c2ccc(C(=O)N3CCCCCC3)cc2)C1 [ECO02-007-C, azepan-1-yl(4-(3,5-diaminopiperidin-1-yl)phenyl)methanone] | 0.6 percentage of the living fluorescent cells | 87% | 98% | – | 97 | 98 | – | – |
| COc1ccc(CC(=O)N2C[C@H](N)C[C@H](N)C2)cc1OC [AB287-F1, 1-((3S,5R)-3,5-diaminopiperidin-1-yl)-2-(3,4-dimethoxyphenyl)ethanone] | 0.1 percentage of the living fluorescent cells | 137% | 182% | – | 103 | 92 | – | 0.4 percentage of the living fluorescent cells |
| COc1ccccc1CCN1C[C@H](N)C[C@H](N)C1 [ECO01-031-C, 1-(2-methoxyphenethyl)piperidine-3,5-diamine] | 0.1 percentage of the living fluorescent cells | 88% | 108% | – | 88 | 82 | – | 4.8 percentage of the living fluorescent cells |
| CCc1ccc(C(=O)NC(CCCCN)C(=O)N2C[C@H](N)C[C@H](N)C2)cc1 (stereo partly shown) [AB289-2, N-(6-amino-1-(3,5-diaminopiperidin-1-yl)-1-oxohexan-2-yl)-4-ethylbenzamide] | 0.1 percentage of the living fluorescent cells | 154% | 219% | 248% | 113 | 101 | 72 | 0.2 percentage of the living fluorescent cells |
| N[C@@H]1C[C@H](N)CN(CCc2ccccc2)C1 [ECO02-027-C, 1-phenethylpiperidine-3,5-diamine] | 8.7 percentage of the living fluorescent cells | 75% | 52% | – | 100 | 45 | – | 2.3 percentage of the living fluorescent cells |
| N[C@@H]1C[C@H](N)CN(c2ccc(NC(=O)c3ccccc3)c(O)c2)C1 [AB-120, N-(4-((3S,5R)-3,5-diaminopiperidin-1-yl)-2-hydroxyphenyl)benzamide] | 0.1 percentage of the living fluorescent cells | 144% | 230% | 215% | 94 | 90 | 55 | 12.3 percentage of the living fluorescent cells |
| CN(C)c1ccc(CN2C[C@H](NC(=O)OC(C)(C)C)C[C@H](NC(=O)OC(C)(C)C)C2)cc1 [ECO02-062-C] | 0.7 percentage of the living fluorescent cells | 239% | 269% | 401% | 91 | 84 | 73 | – |
